# Reference: patent US8912188B2, “Substituted quinoxaline carboxylic acids for the inhibition of PASK” (BioEnergenix, LLC, priority 2011, dated 2014)
# Key:
# PASK = target: T1, PASK (UniProt #Q96RG2; human recombinant N-terminal GST tagged construct, residues 879-1323) (Homo sapiens, UniProt Q96RG2); assay: PASK ATP Radiochemical Assay; assay type: biochemical; conditions: 33P-ATP, Myelin Basic Protein substrate, 120 min at room temperature, read-out: IC50 Kinase Domain
# T1 construct: human recombinant N-terminal GST tagged construct, residues 879-1323; GST (N); host or cells: insect cells
# T1 sequence (Q96RG2 879-1323, stated change not applied): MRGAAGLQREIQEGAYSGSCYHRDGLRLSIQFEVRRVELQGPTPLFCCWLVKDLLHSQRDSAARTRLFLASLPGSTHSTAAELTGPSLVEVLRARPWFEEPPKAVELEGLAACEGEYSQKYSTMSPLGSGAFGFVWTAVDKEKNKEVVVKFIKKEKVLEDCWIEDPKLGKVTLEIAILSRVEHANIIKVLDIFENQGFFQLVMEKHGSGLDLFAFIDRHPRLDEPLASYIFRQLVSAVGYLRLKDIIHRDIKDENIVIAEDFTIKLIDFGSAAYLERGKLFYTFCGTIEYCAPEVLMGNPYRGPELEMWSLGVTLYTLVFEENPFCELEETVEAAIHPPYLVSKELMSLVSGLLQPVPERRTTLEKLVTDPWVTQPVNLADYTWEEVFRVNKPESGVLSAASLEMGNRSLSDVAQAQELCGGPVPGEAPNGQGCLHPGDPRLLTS
# Experimental: Biochemical Assay for hPASK Activity
# PASK ATP Radiochemical Assay
# Test compounds in DMSO are then added and the mixture, followed by delivery of ^33P-ATP (specific activity 0.01 μCi/μl final) to initiate the reaction. […] The entire reaction mixture is washed through onto a P81 Phosphocellulose paper and washed three times for 10 minutes in 75 mM phosphoric acid and once in methanol prior to drying and scintillation counting.
# PASK (Invitrogen) = target: T2, PASK (Invitrogen) (Homo sapiens, UniProt Q96RG2); assay: PAS Kinase FRET Assay; assay type: biochemical; conditions: PAS kinase TR-FRET assay (665 nm/615 nm), 2 hours at 25° C.; read-out: IC50 Kinase Domain
# T2 construct: IC50 Kinase Domain; purchased Invitrogen
# T2 sequence (Q96RG2 999-1251 limits assumed): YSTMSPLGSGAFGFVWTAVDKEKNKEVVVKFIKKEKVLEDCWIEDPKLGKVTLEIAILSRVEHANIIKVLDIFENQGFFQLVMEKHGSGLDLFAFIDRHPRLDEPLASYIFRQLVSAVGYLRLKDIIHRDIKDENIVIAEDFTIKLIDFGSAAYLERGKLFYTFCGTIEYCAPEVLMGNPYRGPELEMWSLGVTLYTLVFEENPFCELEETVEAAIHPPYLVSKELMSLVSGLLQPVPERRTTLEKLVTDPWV
IC50 (PASK),IC50 (PASK (Invitrogen)),SMILES
< 10 µM,< 10 µM,"Cc1n[nH]c2ccc(-c3nc4ccc(C(=O)O)cc4nc3N(C)C(C)C)cc12 [Example 44, 2-(3-Methyl-M-indazol-5-yl)-3-(isopropyl(methyl)amino)quinoxaline-6-carboxylic acid]"
< 10 µM,< 10 µM,"CC(C)N(C)c1nc2cc(C(=O)O)ccc2nc1-c1cc2ccc(F)cc2o1 [Example 45, 2-(6-Fluoro-1-benzofuran-2-yl)-3-[methyl(propan-2-yl)amino]quinoxaline-6-carboxylic acid]"
< 10 µM,< 10 µM,"O=C(O)c1ccc2nc(-c3cc4ccc(F)cc4o3)c(N3CCCCCC3)nc2c1 [Example 48, 3-(Azepan-1-yl)-2-(6-fluoro-1-benzofuran-2-yl)quinoxaline-6-carboxylic acid]"
< 10 µM,< 10 µM,"O=C(O)c1ccc2nc(-c3ccc4c(c3)OC(F)(F)O4)c(N3CCCCCC3)nc2c1 [Example 51, 3-(Azepan-1-yl)-2-(2,2-difluoro-2H-1,3-benzodioxol-5-yl)quinoxaline-6-carboxylic acid]"
< 10 µM,< 10 µM,"CC(C)N(C)c1nc2cc(C(=O)O)ccc2nc1-c1cc(-c2ccccc2)co1 [Example 52, 3-[Methyl(propan-2-yl)amino]-2-(4-phenylfuran-2-yl)quinoxaline-6-carboxylic acid]"
< 10 µM,< 10 µM,"C[C@H]1CCCN1c1nc2cc(C(=O)O)ccc2nc1-c1cc2cc(F)ccc2s1 [Example 55, (S)-2-(5-Fluorobenzo[b]thiophen-2-yl)-3-(2-methylpyrrolidin-1-yl)quinoxaline-6-carboxylic acid]"
< 10 µM,< 10 µM,"C[C@H]1CCCN1c1nc2cc(C(=O)O)ccc2nc1-c1ccc2scnc2c1 [Example 57, 2-(1,3-Benzothiazol-5-yl)-3-[(2S)-2-methylpyrrolidin-1-yl]quinoxaline-6-carboxylic acid]"
< 10 µM,< 10 µM,"CN(c1nc2cc(C(=O)O)ccc2nc1-c1cc2cc(F)ccc2o1)C1CC1 [Example 61, 3-[Cyclopropyl(methyl)amino]-2-(5-fluoro-1-benzofuran-2-yl)quinoxaline-6-carboxylic acid]"
< 10 µM,< 10 µM,"CC(C)N(C)c1nc2cc(C(=O)O)ccc2nc1-n1cnc2ccccc21 [Example 63, 2-(1H-Benzo[d]imidazol-1-yl)-3-(isopropyl(methyl)amino)quinoxaline-6-carboxylic acid]"
< 10 µM,< 10 µM,"CN(c1nc2cc(C(=O)O)ccc2nc1-c1ccc2[nH]ccc2c1)C1CC1 [Example 64, 3-[Cyclopropyl(methyl)amino]-2-(1H-indol-5-yl)quinoxaline-6-carboxylic acid]"
< 10 µM,< 10 µM,"C[C@H]1COCCN1c1nc2cc(C(=O)O)ccc2nc1-c1ccc2[nH]ccc2c1 [Example 66, (S)-2-(1H-Indol-5-yl)-3-(3-methylmorpholino)quinoxaline-6-carboxylic acid]"
< 10 µM,< 10 µM,"COC[C@H]1CCCN1c1nc2cc(C(=O)O)ccc2nc1-c1cc2cc(F)ccc2o1 [Example 68, 2-(5-Fluoro-1-benzofuran-2-yl)-3-[(2R)-2-(methoxymethyl)pyrrolidin-1-yl]quinoxaline-6-carboxylic acid]"
< 10 µM,< 10 µM,"CC[C@H](C)N(C)c1nc2cc(C(=O)O)ccc2nc1-c1cc2cc(F)ccc2o1 [Example 69, (S)-3-(sec-Butyl(methyl)amino)-2-(5-fluorobenzofuran-2-yl)quinoxaline-6-carboxylic acid]"
< 10 µM,< 10 µM,"C[C@H]1CCCCN1c1nc2cc(C(=O)O)ccc2nc1-c1ccc2[nH]ccc2c1 [Example 73, (S)-2-(1H-Indol-5-yl)-3-(2-methylpiperidin-1-yl)quinoxaline-6-carboxylic acid]"
< 10 µM,< 10 µM,"CC[C@@H](C)N(C)c1nc2cc(C(=O)O)ccc2nc1-c1cc2cc(F)ccc2o1 [Example 74, (R)-3-(sec-Butyl(methyl)amino)-2-(5-fluorobenzofuran-2-yl)quinoxaline-6-carboxylic acid]"
